In the supplement of paper PMC5908809:

What was measured:
[1] = tested on: SNK-6 (IL-2 2.5 ng/mL); test: percent inhibition of viability; higher = more inhibition; conditions: 72 h
[2] = tested on: KHYG-1 (IL-2 2.5 ng/mL); test: as above; conditions: 72 h
[3] = tested on: normal primary NK cells, pool 3 (3 donors) (IL-2 2.5 ng/mL); test: as above; conditions: 72 h
[4] = tested on: IMC-1 (IL-2 20 ng/mL); test: as above; conditions: 72 h
[5] = tested on: NK-92 (IL-2 2.5 ng/mL); test: as above; conditions: 72 h
[6] = tested on: normal primary NK cells, pool 1 (3 donors) (IL-2 2.5 ng/mL); test: as above; conditions: 72 h
[7] = tested on: NKL (IL-2 2.5 ng/mL); test: as above; conditions: 72 h
[8] = tested on: normal primary NK cells, pool 1 (3 donors), resting (IL-2 0 ng/mL); test: as above; conditions: 72 h
[9] = tested on: KAI3 (IL-2 2.5 ng/mL); test: as above; conditions: 72 h
[10] = tested on: NK-YS (IL-2 2.5 ng/mL); test: as above; conditions: 72 h
[11] = tested on: DERL-7 (IL-2 2.5 ng/mL); test: as above; conditions: 72 h
[12] = tested on: normal primary NK cells, pool 2 (3 donors) (IL-2 2.5 ng/mL); test: as above; conditions: 72 h
[13] = tested on: YT (IL-2 2.5 ng/mL); test: as above; conditions: 72 h
[14] = tested on: normal NK cells expanded with K562-aAPC; test: as above; conditions: 72 h, IL-2 2.5 ng/mL
Protocol: (§1)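 Drug sensitivity and resistance testing on K562-aAPC-expanded normal NK cells: 5 concentrations (10-fold steps over a 10,000-fold range), 72 h at 37 °C, viability by CellTiter-Glo normalised to DMSO and benzethonium chloride controls; DSS from the fitted curve.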

[15] = tested on: normal NK cells expanded with K562-aAPC; test: drug sensitivity score (DSS) (DSS units); higher = more sensitive; extreme values may be limits of the assay; conditions: 72 h; IL-2 2.5 ng/mL
Protocol: as §1

[16] = tested on: SNK-6 (IL-2 2.5 ng/mL); test: as above; conditions: 72 h
[17] = tested on: KHYG-1 (IL-2 2.5 ng/mL); test: as above; conditions: 72 h
[18] = tested on: normal primary NK cells, pool 3 (3 donors) (IL-2 2.5 ng/mL); test: as above; conditions: 72 h
[19] = tested on: IMC-1 (IL-2 20 ng/mL); test: as above; conditions: 72 h
[20] = tested on: NK-92 (IL-2 2.5 ng/mL); test: as above; conditions: 72 h
[21] = tested on: normal primary NK cells, pool 1 (3 donors) (IL-2 2.5 ng/mL); test: as above; conditions: 72 h
[22] = tested on: NKL (IL-2 2.5 ng/mL); test: as above; conditions: 72 h
[23] = tested on: normal primary NK cells, pool 1 (3 donors), resting (IL-2 0 ng/mL); test: as above; conditions: 72 h
[24] = tested on: KAI3 (IL-2 2.5 ng/mL); test: as above; conditions: 72 h
[25] = tested on: NK-YS (IL-2 2.5 ng/mL); test: as above; conditions: 72 h
[26] = tested on: DERL-7 (IL-2 2.5 ng/mL); test: as above; conditions: 72 h
[27] = tested on: normal primary NK cells, pool 2 (3 donors) (IL-2 2.5 ng/mL); test: as above; conditions: 72 h
[28] = tested on: YT (IL-2 2.5 ng/mL); test: as above; conditions: 72 h

CO[C@H]1C[C@@H]2CC[C@@H](C)[C@@](O)(O2)C(=O)C(=O)N2CCCC[C@H]2C(=O)O[C@H]([C@H](C)C[C@@H]2CC[C@@H](OP(C)(C)=O)[C@H](OC)C2)CC(=O)[C@H](C)/C=C(\C)[C@@H](O)[C@@H](OC)C(=O)[C@H](C)C[C@H](C)/C=C/C=C/C=C/1C [Ridaforolimus] (max concentration tested 100 nM)
percent inhibition of viability [%]
Conditions	0.01 nM	0.1 nM	1 nM	10 nM	100 nM
[1]	-5.16	-2.57	46.2	46	55
[2]	-5.83	-9.85	0.66	26.3	51.1
[3]	-5.53	6.52	5.98	8.12	11
[4]	-3.33	-2.56	-12.9	-45.3	-38.3
[5]	-28.6	-5.36	-5.98	12.4	39
[6]	-8.79	8.41	13.3	20.3	11.8
[7]	-1.33	21.2	50.1	55	58.3
[8]	-5.23	14.6	24.1	30.7	28.2
[9]	-4.12	-7.54	27.9	44	48.8
[10]	-0.81	5.33	44.5	49.8	54.8
[11]	-15.4	2.83	28.9	51.2	57.3
[12]	-12.7	6.23	9.36	16.1	19.1
[13]	-4.71	-6.15	16.4	48.4	45.6
[14]	-10	-8.61	-0.94	10.6	16.8

Conditions	drug sensitivity score
[15]	1.24
[16]	15.6
[17]	5.97
[18]	0.06
[19]	0
[20]	3.73
[21]	3.96
[22]	19.2
[23]	9.48
[24]	12.4
[25]	16
[26]	13.3
[27]	2.58
[28]	11.2

N#CC[C@H](C1CCCC1)n1cc(-c2ncnc3[nH]ccc23)cn1 [Ruxolitinib] (max concentration tested 10000 nM)
percent inhibition of viability [%]
Conditions	1 nM	10 nM	100 nM	1000 nM	10000 nM
[1]	7.33	12.7	73.5	73.9	85.4
[2]	7.19	19.2	94.1	108	108
[3]	3.79	6.55	43	64.5	74.2
[4]	1.77	-5.31	5.62	58.7	99.6
[5]	14.7	23.2	54.9	93.3	105
[6]	2.57	6.3	49.3	58	74.3
[7]	-1.94	49.5	75.1	94.7	101
[8]	7.5	-6.83	11.8	-24.4	27.4
[9]	18.2	33.2	84.8	97.7	101
[10]	3.29	10.2	48.2	68.6	84.1
[11]	9.24	20.8	64.2	101	101
[12]	-1.35	14.5	50.1	65	71.7
[13]	9.67	13.1	30.9	75.8	84.3
[14]	2.08	18.6	65.1	97.8	98.6

Conditions	drug sensitivity score
[15]	26.7
[16]	25.9
[17]	32.2
[18]	18
[19]	12.6
[20]	25.6
[21]	18.5
[22]	32.6
[23]	0.6
[24]	32.2
[25]	19.8
[26]	27.1
[27]	19.8
[28]	17.8
